According to ChEMBL document CHEMBL1134164, “Antifungal activity of octyl gallate: structural criteria and mode of action” (2001):
Converted amounts (≈) assume the structure as drawn. The source made the active and inactive calls.

Assays:
Saccharomyces cerevisiae [1] = experiment: Minimum fungicidal concentration against Saccharomyces cerevisiae; assay type: functional
Saccharomyces cerevisiae [2] = experiment: Minimum fungicidal concentration against Saccharomyces cerevisiae (Inactive); assay type: functional, organism-based
Aspergillus niger [3] = experiment: Antifungicidal activity against Aspergillus niger was determined; assay type: functional
Aspergillus niger [4] = experiment: Inhibitory activity against Aspergillus niger was determined; assay type: functional
Bacillus subtilis = experiment: Antimicrobial activity against Bacillus subtilis was determined; assay type: functional
[5] = system: Corynebacterium ammoniagenes; experiment: Antimicrobial activity against Brevibacterium ammoniagenes was determined; assay type: functional
Candida albicans [6] = experiment: Inhibitory activity against Candida albicans was determined; assay type: functional
Candida albicans [7] = experiment: Antifungicidal activity against Candida albicans was determined; assay type: functional
Klebsiella aerogenes [8] = experiment: Antimicrobial activity against Enterobacter aerogenes was determined; assay type: functional
Escherichia coli [9] = experiment: Antimicrobial activity against Escherichia coli was determined; assay type: functional
Micrococcus luteus [10] = experiment: Antimicrobial activity against Micrococcus luteus was determined; assay type: functional
Proteus vulgaris [11] = experiment: Antimicrobial activity against Proteus vulgaris was determined; assay type: functional
Pseudomonas aeruginosa [12] = experiment: Inhibitory activity against Pseudomonas aeruginosa was determined; assay type: functional
Cutibacterium acnes [13] = experiment: Antimicrobial activity against Propionibacterium acnes was determined; assay type: functional
Proteus vulgaris [14] = experiment: Inhibitory activity against Proteus vulgaris was determined; assay type: functional
Pseudomonas aeruginosa [15] = experiment: Antimicrobial activity against Pseudomonas aeruginosa was determined; assay type: functional
Salmonella enterica = experiment: Antimicrobial activity against Salmonella choleraesuis was determined; assay type: functional
Staphylococcus aureus [16] = experiment: Inhibitory activity against Staphylococcus aureus (MRSA) was determined; assay type: functional
Staphylococcus aureus [17] = experiment: Antimicrobial activity against Staphylococcus aureus was determined; assay type: functional
Saccharomyces cerevisiae [18] = experiment: Antifungicidal activity against Saccharomyces cerevisiae was determined; assay type: functional
Saccharomyces cerevisiae [19] = experiment: Inhibitory activity against Saccharomyces cerevisiae was determined; assay type: functional
Staphylococcus aureus [20] = experiment: Antimicrobial activity against Staphylococcus aureus (MRSA) was determined; assay type: functional
Streptococcus mutans [21] = experiment: Antimicrobial activity against Streptococcus mutans was determined; assay type: functional
Zygosaccharomyces bailii [22] = experiment: Antifungicidal activity against Zygosaccharomyces bailii was determined; assay type: functional
Cutibacterium acnes [23] = experiment: Inhibitory activity against Propionibacterium acnes was determined; assay type: functional
Zygosaccharomyces bailii [24] = experiment: Inhibitory activity against Zygosaccharomyces bailii was determined; assay type: functional
Escherichia coli [25] = experiment: Inhibitory activity against Escherichia coli was determined
Micrococcus luteus [26] = experiment: Inhibitory activity against Micrococcus luteus was determined
Streptococcus mutans [27] = experiment: Inhibitory activity against Streptococcus mutans was determined
Staphylococcus aureus [28] = experiment: Inhibitory activity against Staphylococcus aureus was determined
Klebsiella aerogenes [29] = experiment: Inhibitory activity against Enterobacter aerogenes was determined
[30] = system: Corynebacterium ammoniagenes; experiment: Inhibitory activity against Brevibacterium ammoniagenes was determined
[31] = system: Corynebacterium ammoniagenes; experiment: Inhibitory activity against Brevibacterium ammoniagenes was determined; assay type: functional
Klebsiella aerogenes [32] = experiment: Inhibitory activity against Enterobacter aerogenes was determined; assay type: functional
Escherichia coli [33] = experiment: Inhibitory activity against Escherichia coli was determined; assay type: functional
Micrococcus luteus [34] = experiment: Inhibitory activity against Micrococcus luteus was determined; assay type: functional
Staphylococcus aureus [35] = experiment: Inhibitory activity against Staphylococcus aureus was determined; assay type: functional
Streptococcus mutans [36] = experiment: Inhibitory activity against Streptococcus mutans was determined; assay type: functional

| SMILES | MFC (Saccharomyces cerevisiae [1]) | MFC (Aspergillus niger [3]) | MFC (Aspergillus niger [4]) | MBC (Bacillus subtilis) | MBC [5] | MFC (Candida albicans [6]) | MFC (Candida albicans [7]) | MBC (Klebsiella aerogenes [8]) | MBC (Escherichia coli [9]) | MBC (Micrococcus luteus [10]) | MBC (Proteus vulgaris [11]) | MIC (Pseudomonas aeruginosa [12]) | MBC (Cutibacterium acnes [13]) | MIC (Proteus vulgaris [14]) | MBC (Pseudomonas aeruginosa [15]) | MBC (Salmonella enterica) | MIC (Staphylococcus aureus [16]) | MBC (Staphylococcus aureus [17]) | MFC (Saccharomyces cerevisiae [18]) | MFC (Saccharomyces cerevisiae [19]) | other results |
| --- | --- | --- | --- | --- | --- | --- | --- | --- | --- | --- | --- | --- | --- | --- | --- | --- | --- | --- | --- | --- | --- |
| CCCCCCCOC(=O)/C=C/c1ccc(O)c(O)c1 | 50 µg/mL (≈ 180 µM) |  |  |  |  |  |  |  |  |  |  |  |  |  |  |  |  |  |  |  |  |
| CCCCCCCCCC(=O)Oc1ccc(O)c(O)c1 | 50 µg/mL (≈ 178 µM) |  |  |  |  |  |  |  |  |  |  |  |  |  |  |  |  |  |  |  |  |
| CCCCCCCCOC(=O)c1cccc(O)c1O |  |  |  |  |  |  |  |  |  |  |  |  |  |  |  |  |  |  |  |  | MIC (Saccharomyces cerevisiae [2]): inactive |
| CCCCCCCCCCCCOC(=O)c1cc(O)c(O)c(O)c1 [DODECYL GALLATE] |  | > 400 µg/mL | > 400 µg/mL | 25 µg/mL (≈ 73.9 µM) | 25 µg/mL (≈ 73.9 µM) | > 400 µg/mL | > 400 µg/mL | > 800 µg/mL | > 800 µg/mL | 25 µg/mL (≈ 73.9 µM) | > 800 µg/mL | > 800 µg/mL | 6.25 µg/mL (≈ 18.5 µM) | > 800 µg/mL | > 800 µg/mL | 50 µg/mL (≈ 148 µM) | 12.5 µg/mL (≈ 36.9 µM) | 25 µg/mL (≈ 73.9 µM) | > 1600 µg/mL | > 1600 µg/mL | MBC (Staphylococcus aureus [20]): 25 µg/mL (≈ 73.9 µM); MBC (Streptococcus mutans [21]): 100 µg/mL (≈ 295 µM); MFC (Zygosaccharomyces bailii [22]): > 1600 µg/mL; MIC (Cutibacterium acnes [23]): 6.25 µg/mL (≈ 18.5 µM); MIC (Zygosaccharomyces bailii [24]): > 1600 µg/mL; MIC (Escherichia coli [25]): > 800 µg/mL; MIC (Micrococcus luteus [26]): 12.5 µg/mL (≈ 36.9 µM); MIC (Streptococcus mutans [27]): 100 µg/mL (≈ 295 µM); MIC (Staphylococcus aureus [28]): 12.5 µg/mL (≈ 36.9 µM); MIC (Klebsiella aerogenes [29]): > 800 µg/mL; MIC [30]: 12.5 µg/mL (≈ 36.9 µM) |
| CC(C)=CCC/C(C)=C/COC(=O)c1cc(O)c(O)c(O)c1 [Geranyl gallate] | 50 µg/mL (≈ 163 µM) |  |  |  |  |  |  |  |  |  |  |  |  |  |  |  |  |  |  |  |  |
| CCCCCCCCOC(=O)c1cc(O)c(O)c(O)c1 [OCTYL_GALLATE] |  | 100 µg/mL (≈ 354 µM) | 50 µg/mL (≈ 177 µM) | 25 µg/mL (≈ 88.5 µM) | 50 µg/mL (≈ 177 µM) | 25 µg/mL (≈ 88.5 µM) | 25 µg/mL (≈ 88.5 µM) | > 800 µg/mL | > 800 µg/mL | 25 µg/mL (≈ 88.5 µM) | 50 µg/mL (≈ 177 µM) | > 800 µg/mL | 25 µg/mL (≈ 88.5 µM) | 25 µg/mL (≈ 88.5 µM) | > 800 µg/mL | 12.5 µg/mL (≈ 44.3 µM) | 25 µg/mL (≈ 88.5 µM) | 50 µg/mL (≈ 177 µM) | 25 µg/mL (≈ 88.5 µM) | 25 µg/mL (≈ 88.5 µM) | MIC [31]: 25 µg/mL (≈ 88.5 µM); MIC (Klebsiella aerogenes [32]): > 800 µg/mL; MIC (Escherichia coli [33]): > 800 µg/mL; MIC (Micrococcus luteus [34]): 12.5 µg/mL (≈ 44.3 µM); MIC (Staphylococcus aureus [35]): 25 µg/mL (≈ 88.5 µM); MIC (Streptococcus mutans [36]): 50 µg/mL (≈ 177 µM); MBC (Staphylococcus aureus [20]): 50 µg/mL (≈ 177 µM); MBC (Streptococcus mutans [21]): 50 µg/mL (≈ 177 µM); MFC (Zygosaccharomyces bailii [22]): 50 µg/mL (≈ 177 µM); MIC (Cutibacterium acnes [23]): 25 µg/mL (≈ 88.5 µM); MIC (Zygosaccharomyces bailii [24]): 50 µg/mL (≈ 177 µM) |
| CCCOC(=O)c1cc(O)c(O)c(O)c1 [PROPYL GALLATE] |  | > 3200 µg/mL | > 3200 µg/mL | 1600 µg/mL (≈ 7540 µM) | 3200 µg/mL (≈ 15100 µM) | 3200 µg/mL (≈ 15100 µM) | > 3200 µg/mL | > 3200 µg/mL | 1600 µg/mL (≈ 7540 µM) | 3200 µg/mL (≈ 15100 µM) | 400 µg/mL (≈ 1890 µM) | 3200 µg/mL (≈ 15100 µM) | 800 µg/mL (≈ 3770 µM) | 400 µg/mL (≈ 1890 µM) | > 3200 µg/mL | > 3200 µg/mL | 1600 µg/mL (≈ 7540 µM) | 3200 µg/mL (≈ 15100 µM) | > 3200 µg/mL | 3200 µg/mL (≈ 15100 µM) | MIC [31]: 1600 µg/mL (≈ 7540 µM); MIC (Klebsiella aerogenes [32]): 3200 µg/mL (≈ 15100 µM); MIC (Escherichia coli [33]): 1600 µg/mL (≈ 7540 µM); MIC (Micrococcus luteus [34]): 1600 µg/mL (≈ 7540 µM); MIC (Staphylococcus aureus [35]): 1600 µg/mL (≈ 7540 µM); MIC (Streptococcus mutans [36]): 400 µg/mL (≈ 1890 µM); MBC (Staphylococcus aureus [20]): 3200 µg/mL (≈ 15100 µM); MBC (Streptococcus mutans [21]): 800 µg/mL (≈ 3770 µM); MFC (Zygosaccharomyces bailii [22]): > 3200 µg/mL; MIC (Cutibacterium acnes [23]): 800 µg/mL (≈ 3770 µM); MIC (Zygosaccharomyces bailii [24]): > 3200 µg/mL |
